What follows are compounds tested against T1, rhesus (Macacca Mulatta) H3 receptor (Macaca mulatta, UniProt Q865E1) (assay: Rhesus H3 [3H]-Methylhistamine radioligand binding assay (SPA)). Conditions: [3H]-Methylhistamine 2 nM, rhesus H3 membranes, Cheng-Prusoff; read-out: Affinity: ki in Rhesus H3 membrane binding ki.
T1 construct: pcDNA5/FRT/TO (Invitrogen) containing the rhesus monkey (Macacca Mulatta) 445 amino acid H3 receptor
Set-up: species or system rhesus monkey (Macacca Mulatta)
Method: Rhesus H3 membranes were prepared from the Flp-In T-REx 293 Cell Line (Invitrogen) stably transfected with pcDNA5/FRT/TO (Invitrogen) containing the rhesus monkey (Macacca Mulatta) 445 amino acid H3 receptor. (Genbank #AY231164). Stably transfected cultures were amplified in tissue culture flasks by standard tissue culture methods and induced to express rhesus H3 by exposure to 500 ng/ml tetracycline (Cellgro) for 24 hours. After induction, cells were dissociated from flasks utilizing Cell Stripper (Cellgro). Cells were centrifuged (1K×g, 5 min) and pellet frozen in an ethanol-dry ice bath to disrupt cell membranes. Frozen cell pellet was re-suspended in 5 mM HEPES (pH 7.4, Invitrogen) at 10 ml/1000 cm2 of harvested cells. The cell suspension was drawn through an 18 gauge needle (2-3×) followed by a 23 gauge needle (2-3×) to further disrupt cell membranes. The cell suspension was centrifuged (40K×g, 30 min). Cell membrane pellet was re-suspended in 5 mM HEPES (pH 7.4, Invitrogen) at a final protein concentration of 10 mg/ml. Rhesus H3 membranes were stored under liquid nitrogen prior to use in [3H]-Methylhistamine and GTPγS radioligand binding assays.
Rhesus H3 radioligand binding assay was performed using rhesus H3 receptor membranes (prepared as described above), [3H]-Methylhistamine (Perkin Elmer) and WGA SPA beads (wheat germ agglutinin scintillation proximity assay) beads (Amersham). The assay was performed in 96-well Opti-Plates (Packard). Each reaction contained 50 μl rhesus H3 membranes (20-30 μg total protein), 50 μl WGA SPA beads (0.1 μg) and 50 μl of 83Ci/mmol [^3H]-Methylhistamine (final concentration 2 nM) and 50 μl of tested compound. The compounds of this invention and/or vehicle were diluted with binding buffer from 10 mM DMSO stocks. Assay plates were sealed with TopSeal (Perkin Elmer) and mixed on shaker (25° C., 1 hour). Assay plates were read on TopCount scintillation counter (Packard). Results were analyzed by Hill transformation and Ki values were determined by Cheng-Prusoff equation.

T1 sequence (Q865E1 1-445): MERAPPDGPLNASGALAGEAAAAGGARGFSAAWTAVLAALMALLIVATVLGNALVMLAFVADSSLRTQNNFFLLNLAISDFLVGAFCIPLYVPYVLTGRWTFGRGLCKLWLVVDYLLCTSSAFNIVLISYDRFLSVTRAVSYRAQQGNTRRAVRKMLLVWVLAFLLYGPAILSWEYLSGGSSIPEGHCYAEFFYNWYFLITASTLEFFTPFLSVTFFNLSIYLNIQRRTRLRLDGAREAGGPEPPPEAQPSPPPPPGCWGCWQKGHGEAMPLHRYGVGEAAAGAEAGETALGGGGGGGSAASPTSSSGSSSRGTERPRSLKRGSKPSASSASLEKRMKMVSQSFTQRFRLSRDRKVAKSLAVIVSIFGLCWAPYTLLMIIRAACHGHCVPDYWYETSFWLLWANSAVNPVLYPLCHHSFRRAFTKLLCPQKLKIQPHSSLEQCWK

Row | SMILES | Ki [nM]
1 | Cc1cc(N2CCC(CN3CCCC3C)C2)ccc1NC(=O)c1ccc(COCc2ccccc2)nc1 (stereo not shown) [Example 6, 6-Benzyloxymethyl-N-{2-methyl-4-[3-(2-methyl-pyrrolidin-1-ylmethyl)-pyrrolidin-1-yl]-phenyl}-nicotinamide] | 95.4
2 | Cc1cc(N2CCC(CN3CCCC3C)C2)ccc1NC(=O)c1ccc(-n2ccnc2)cc1 (stereo not shown) [Example 9, 4-Imidazol-1-yl-N-{2-methyl-4-[3-(2-methyl-pyrrolidin-1-ylmethyl)-pyrrolidin-1-yl]-phenyl}-benzamide] | 3.1
3 | Cc1cc(N2CCC(CN3CCCC3C)C2)ccc1NC(=O)c1ccc2c(c1)OCO2 (stereo not shown) [Example 7, Benzo[1,3]dioxole-5-carboxylic acid {2-methyl-4-[3-(2-methyl-pyrrolidin-1-ylmethyl)-pyrrolidin-1-yl]-phenyl}-amide] | 34.2
4 | Cc1cc(N2CCC(CN3CCCC3C)C2)ccc1NC(=O)c1cnc(NCCO)c(Cl)c1 (stereo not shown) [Example 2, 5-Chloro-6-(2-hydroxy-ethylamino)-N-{2-methyl-4-[3-(2-methyl-pyrrolidin-1-ylmethyl)-pyrrolidin-1-yl]-phenyl}-nicotinamide] | 51.2
5 | Cc1cc(N2CCC(CN3CCCC3C)C2)ccc1NC(=O)c1ccc2cc[nH]c2c1 (stereo not shown) [Example 8, 1H-Indole-6-carboxylic acid {2-methyl-4-[3-(2-methyl-pyrrolidin-1-ylmethyl)-pyrrolidin-1-yl]-phenyl}-amide] | 18
6 | Cc1nc2cc(C(=O)Nc3ccc(N4CCC(CN5CCCC5C)C4)cc3C)ccc2[nH]1 (stereo not shown) [Example 1, 2-M ethyl-1H-benzoimidazole-5-carboxylic acid {2-methyl-4-[3-(2-methyl-pyrrolidin-1-ylmethyl)-pyrrolidin-1-yl]-phenyl}-amide] | 15.7
7 | Cc1cc(N2CCC(CN3CCCC3C)C2)ccc1NC(=O)c1ccc2c(c1)NC(=O)CNC2=O (stereo not shown) [Example 13, 2,5-Dioxo-2,3,4,5-tetrahydro-1H-benzo[e][1,4]diazepine-8-carboxylic acid {2-methyl-4-[3-(2-methyl-pyrrolidin-1-ylmethyl)-pyrrolidin-1-yl]-phenyl}-amide] | 9.3
8 | COc1ccc2[nH]c(C(=O)Nc3ccc(N4CCC(CN5CCCC5C)C4)cc3C)cc2c1 (stereo not shown) [Example 12, 5-Methoxy-1H-indole-2-carboxylic acid {2-methyl-4-[3-(2-methyl-pyrrolidin-1-ylmethyl)-pyrrolidin-1-yl]-phenyl}-amide] | 61.5
9 | Cc1cc(N2CCC(CN3CCCC3C)C2)ccc1NC(=O)c1ccc2c(c1)CCO2 (stereo not shown) [Example 5, 2,3-Dihydro-benzofuran-5-carboxylic acid {2-methyl-4-[3-(2-methyl-pyrrolidin-1-ylmethyl)-pyrrolidin-1-yl]-phenyl}-amide] | 40.4
10 | Cc1cc(N2CCC(CN3CCCC3C)C2)ccc1NC(=O)c1ccc(CO)cc1 (stereo not shown) [Example 11, 4-Hydroxymethyl-N-{2-methyl-4-[3-(2-methyl-pyrrolidin-1-ylmethyl)-pyrrolidin-1-yl]-phenyl}-benzamide] | 62.1
11 | CC(=O)N1CCCC(c2ccc(C(=O)Nc3ccc(N4CCC(CN5CCCC5C)C4)cc3C)cc2)C1 (stereo not shown) [Example 10, 4-(1-Acetyl-piperidin-3-yl)-N-{2-methyl-4-[3-(2-methyl-pyrrolidin-1-ylmethyl)-pyrrolidin-1-yl]-phenyl}-benzamide] | 29.8
12 | Cc1cc(N2CCC(CN3CCCC3C)C2)ccc1NC(=O)c1ccc(-n2cccc2)nc1 (stereo not shown) [Example 4, N-{2-Methyl-4-[3-(2-methyl-pyrrolidin-1-ylmethyl)-pyrrolidin-1-yl]-phenyl}-6-pyrrol-1-yl-nicotinamide] | 39.3
13 | Cc1cc(N2CCC(CN3CCCC3C)C2)ccc1NC(=O)c1cnc2cc(Cl)ccc2c1O (stereo not shown) [Example 3, 7-Chloro-4-hydroxy-quinoline-3-carboxylic acid {2-methyl-4-[3-(2-methyl-pyrrolidin-1-ylmethyl)-pyrrolidin-1-yl]-phenyl}-amide] | 94.7

The next lines start with the values.

Row | Ki [nM] | SMILES
14 | 67.6 | Cc1cc(N2CCC(CN3CCCC3C)C2)ccc1NC(=O)c1ccc2c(c1)C(O)C(O)C(C)(C)O2 (stereo not shown) [Example 16, 3,4-Dihydroxy-2,2-dimethyl-chroman-6-carboxylic acid {2-methyl-4-[3-(2-methyl-pyrrolidin-1-ylmethyl)-pyrrolidin-1-yl]-phenyl}-amide]
15 | 66.7 | COc1ccc2cc(C(=O)Nc3ccc(N4CCC(CN5CCCC5C)C4)cc3C)oc2c1 (stereo not shown) [Example 15, 6-Methoxy-benzofuran-2-carboxylic acid {2-methyl-4-[3-(2-methyl-pyrrolidin-1-ylmethyl)-pyrrolidin-1-yl]-phenyl}-amide]
16 | 32.3 | COCCNC(=O)c1ccc(C(=O)Nc2ccc(N3CCC(CN4CCCC4C)C3)cc2C)cn1 (stereo not shown) [Example 14, Pyridine-2,5-dicarboxylic acid 2-[(2-methoxy-ethyl)-amide]5-({2-methyl-4-[3-(2-methyl-pyrrolidin-1-ylmethyl)-pyrrolidin-1-yl]-phenyl}-amide)]
17 | 19.2 | Cc1ccc2c(O)c(C(=O)Nc3ccc(N4CCC(CN5CCCC5C)C4)cc3C)cnc2n1 (stereo not shown) [Example 17, 4-Hydroxy-7-methyl-[1,8]naphthyridine-3-carboxylic acid {2-methyl-4-[3-(2-methyl-pyrrolidin-1-ylmethyl)-pyrrolidin-1-yl]-phenyl}-amide]
18 | 59.4 | CC1=NN(c2ccc(C(=O)Nc3ccc(N4CCC(CN5CCCC5C)C4)cc3C)cc2)C(=O)C1 (stereo not shown) [Example 18, N-{2-Methyl-4-[3-(2-methyl-pyrrolidin-1-ylmethyl)-pyrrolidin-1-yl]-phenyl}-4-(3-methyl-5-oxo-4,5-dihydro-pyrazol-1-yl)-benzamide]
19 | 26.5 | Cc1ccc2oc(C(=O)Nc3ccc(N4CCC(CN5CCCC5C)C4)cc3C)cc(=O)c2c1 (stereo not shown) [Example 19, 6-Methyl-4-oxo-4H-chromene-2-carboxylic acid {2-methyl-4-[3-(2-methyl-pyrrolidin-1-ylmethyl)-pyrrolidin-1-yl]-phenyl}-amide]
